Key:
SK-MEL-28 = assay: Growth inhibition of apoptosis-resistance human SK-MEL-28 cells after 72 hrs by MTT assay; format: functional; conditions: SK-MEL-28, 72 h
A549 = assay: Growth inhibition of apoptosis-resistance human A549 cells after 72 hrs by MTT assay; format: functional; conditions: A549, 72 h
[1] = Growth inhibition of apoptosis-resistance human U373 cells after 72 hrs by MTT assay; format: functional, U-373MG ATCC; conditions: U373 MG
Hs 683 = assay: Growth inhibition of apoptosis-sensitive human Hs 683 cells after 72 hrs by MTT assay; format: functional; conditions: Hs 683, 72 h
B16-F10 = assay: Growth inhibition of apoptosis-resistance mouse B16F10 cells after 72 hrs by MTT assay; format: functional; conditions: B16-F10, 72 h

SMILES | GI50 (SK-MEL-28) [µM] | GI50 (A549) [µM] | GI50 [1] [µM] | GI50 (Hs 683) [µM] | GI50 (B16-F10) [µM]
Clc1ccc(Oc2c(-c3ccc(Cl)cc3)[nH]c3ccccc23)cc1 | 28 | 25 | 25 | 28 | 29
Cc1onc(-c2c(F)cccc2Cl)c1C(=O)Nc1c(-c2ccccc2)[nH]c2ccccc12 | 13 | 9 | 24 | 15 | 22
O=C(Nc1c(-c2ccccc2)[nH]c2ccc(Cl)cc12)c1cc2ccccc2oc1=O | 55 | 37 | 66 | 45 | 27
CCOC(=O)C1CCN(C(=S)Sc2c(-c3ccc(Br)cc3)[nH]c3ccc(Cl)cc23)CC1 | 39 | 34 | 33 | 36 | 21
Cc1ccc2[nH]c(-c3ccc(Cl)cc3)c(-n3nc(C)cc3C)c2c1 | 46 | 42 | 43 | 50 | 65
COc1ccc2[nH]c(-c3ccc(Cl)cc3)c(Oc3ccc(Cl)cc3)c2c1 | 57 | 59 | 50 | 54 | 31
Fc1cccc2c(Oc3ccc(Cl)cc3)c(-c3ccc(Cl)cc3)[nH]c12 | 8 | 7 | 8 | 7 | 8
Cc1cc(C)n(-c2c(-c3cccs3)[nH]c3ccccc23)n1 | 80 | 38 | 90 | 58 | 73
Clc1ccc(/N=N/c2c(-c3ccc(Br)cc3)[nH]c3ccccc23)cc1 | 33 | 26 | 33 | 31 | 33
CCOC(=O)C1CCN(C(=S)Sc2c(-c3ccc(Br)cc3)n(C)c3ccccc23)CC1 | 78 | 72 | > 100 | 85 | 50
Clc1ccc(Sc2c(-c3ccc(Cl)cc3)[nH]c3ccc(Cl)cc23)cc1 | 34 | 27 | 28 | 31 | 28
O=C(COc1ccc(Cl)cc1)Nc1c(-c2ccccc2)[nH]c2ccccc12 | 48 | 37 | 66 | 38 | 32
OC1CCCN(C(=S)Sc2c(-c3ccc(Br)cc3)[nH]c3ccccc23)C1 (stereo not given) | 28 | 24 | 32 | 24 | 29
CCOC(=O)C1CCN(C(=S)Sc2c(-c3ccc(Br)cc3)[nH]c3ccc(C)cc23)CC1 | 52 | 37 | 68 | 34 | 37
Cc1cc(C)n(-c2c(-c3ccccc3)[nH]c3ccc(F)cc23)n1 | 31 | 29 | 47 | 32 | 39
CCOC(=O)c1ccc2[nH]c(-c3ccc(Cl)cc3)c(Oc3ccc(Cl)cc3)c2c1 | 28 | 28 | 35 | 24 | 20

Reference: ChEMBL document CHEMBL2380251, “Antiproliferative activity of 2,3-disubstituted indoles toward apoptosis-resistant cancers cells” (2013)
